Experimental data published in US20090029366A1 (priority 2007, published 2009).
Read-outs that look alike come from different tables or passages of the source.

Tests used:
human HCN1 [1] = biological target: T1, human HCN1 (Homo sapiens, UniProt O60741); format: cell-based
T1 construct: expressed in transfected cells; host or cells: HEK-293H
T1 sequence (O60741 1-890): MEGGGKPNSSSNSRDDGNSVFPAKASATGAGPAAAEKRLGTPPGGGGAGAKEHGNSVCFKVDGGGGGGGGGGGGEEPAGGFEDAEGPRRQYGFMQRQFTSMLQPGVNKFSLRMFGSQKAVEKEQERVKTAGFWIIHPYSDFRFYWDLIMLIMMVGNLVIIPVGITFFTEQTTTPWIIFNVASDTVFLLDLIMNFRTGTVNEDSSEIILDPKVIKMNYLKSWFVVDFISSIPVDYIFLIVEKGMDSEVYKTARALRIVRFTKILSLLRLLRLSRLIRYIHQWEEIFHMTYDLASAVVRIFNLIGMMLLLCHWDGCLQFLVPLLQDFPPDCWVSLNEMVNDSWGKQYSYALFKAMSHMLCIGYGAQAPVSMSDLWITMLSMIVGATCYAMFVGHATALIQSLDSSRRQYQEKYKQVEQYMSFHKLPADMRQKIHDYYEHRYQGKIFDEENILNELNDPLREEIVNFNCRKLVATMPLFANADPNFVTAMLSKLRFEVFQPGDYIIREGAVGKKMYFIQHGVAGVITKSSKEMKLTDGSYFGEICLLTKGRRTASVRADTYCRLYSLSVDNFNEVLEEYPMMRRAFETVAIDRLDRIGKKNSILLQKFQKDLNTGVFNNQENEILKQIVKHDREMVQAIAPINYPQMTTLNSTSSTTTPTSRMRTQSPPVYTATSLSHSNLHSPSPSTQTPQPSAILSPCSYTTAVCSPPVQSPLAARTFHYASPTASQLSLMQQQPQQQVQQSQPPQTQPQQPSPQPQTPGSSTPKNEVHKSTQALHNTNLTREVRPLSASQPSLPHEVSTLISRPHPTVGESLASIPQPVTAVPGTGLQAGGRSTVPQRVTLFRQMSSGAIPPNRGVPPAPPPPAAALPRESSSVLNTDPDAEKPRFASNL

human HCN1 [2] = biological target: T1, human HCN1; test: Dose response of blockade of hyperpolarization (MPSD FLIPR), HCN1; format: cell-based; conditions: HEK-293 clone
Protocol: HEK-293H cells stably expressing a human HCN1 channel were plated and incubated in HBSS essentially as described in Examples 3 and 5. CHO-K1 cells stably expressing a human HCN4 channel were plated and incubated in HBSS essentially as described in Example 6. Varying concentrations of ZD7288 were added to HBSS for each of the test wells to determine the dose response of cells expressing HCN1 or HCN4 channels. The percent inhibition of hyperpolarization was calculated for a single dose using the following equation:
The data were fit with a Hill equation as described by the ratio 1/(1+([test agent]/IC50)^k, where IC50 is the concentration of a test agent required to inhibit one-half of the maximum current and k is the Hill coefficient.
FIG. 10A depicts a typical dose response curve for a single HEK-293H HCN1 channel expressing clone in the presence of ZD7288. […] No statistical difference was found between the two means.

## CCN(c1ccccc1)c1cc(=NC)n(C)c(C)n1.Cl [ZD7288]
Human HCN1 [1]
  reversal of hyperpolarization induced by low sodium/potassium diluent: reversed
Human HCN1 [2]; group 1, n=8, mean ± 0.2 μM, read-out: IC50 mean, group 1
  IC50: 2100 nM
Human HCN1 [2]; group 2, n=12, mean ± 0.8 μM, read-out: IC50 mean, group 2
  IC50: 2900 nM
